# Measurements published in patent US8063214B2, “Polymorphic forms of tadalafil” (Dr. Reddy's Laboratories Limited, priority 2004, dated 2011).
# Experiments:
# Assay type in all cases: physicochemical
# [1] = Particle size distribution by MASTERSIZER 2000 laser light scattering
# From the text: The particle size distribution plots of the drawings were obtained using a MASTERSIZER™ 2000 laser light scattering instrument sold by Malvern Instruments Ltd. of Malvern, Worcestershire, United Kingdom. In the plots, values in the vertical axis represent a volume percentage of particles and the horizontal axis is a logarithmic scale of particle sizes, in μm units.
# [2] = Bulk density and tapped bulk density, Test Method 616 of United States Pharmacopeia 24; details: for tapped bulk density: after tapping
# [3] = Storage of polymorphic forms under ambient conditions, form checked by XRPD; details: for polymorphic form after storage (XRPD pattern): ambient conditions; for polymorphic form stability upon storage: storage at ambient temperatures
# From the text: The various forms of tadalafil are characterized by their XRPD patterns, which differ between polymorpic forms. All XRPD results reported herein were obtained using Cu Kα radiation, having the wavelength 1.541 Å. The XRPD patterns of the figures have a vertical axis that is intensity units, and a horizontal axis that is degrees 2θ.
SMILES,diameters of 10 volume percent of the particles [1],diameters of 50 volume percent of the particles [1],diameters of 90 volume percent of the particles [1],bulk density [2] [g/mL],tapped bulk density [2] [g/mL],"polymorphic form after storage (XRPD pattern) ([3]; sealed in a polyethylene bag, 40 hours)",polymorphic form stability upon storage [3],"polymorphic form after storage (XRPD pattern) ([3]; sealed polyethylene bag, 3 to 4 days)",polymorphic form stability upon storage ([3]; listed as mixtures of Form A and Form B)
"CN1CC(=O)N2[C@H](c3ccc4c(c3)OCO4)c3[nH]c4ccccc4c3C[C@@H]2C1=O [Example 15, tadalafil]",less than 58 μm,less than 193 μm,less than 428 μm,0.435,0.626,–,–,–,–
"CN1CC(=O)N2[C@H](c3ccc4c(c3)OCO4)c3[nH]c4ccccc4c3C[C@@H]2C1=O [Tadalafil Form B, tadalafil]",–,–,–,–,–,conversion of the tadalafil Form B into Form A,spontaneously converts to Form A,–,–
"CN1CC(=O)N2[C@H](c3ccc4c(c3)OCO4)c3[nH]c4ccccc4c3C[C@@H]2C1=O [Example 11, tadalafil]",less than 9.9 μm,less than 40 μm,less than 148 μm,0.181,0.434,–,–,–,–
"CN1CC(=O)N2[C@H](c3ccc4c(c3)OCO4)c3[nH]c4ccccc4c3C[C@@H]2C1=O [Example 1, tadalafil]",less than 31 μm,less than 104 μm,less than 321 μm,0.344,0.666,–,–,–,–
"CN1CC(=O)N2[C@H](c3ccc4c(c3)OCO4)c3[nH]c4ccccc4c3C[C@@H]2C1=O [Example 21, tadalafil]",–,–,–,–,–,–,–,conversion of the tadalafil Form B into Form A,will convert to only Form A
